Measured values as given in patent US20090203695A1, “Compounds IV” (Biovitrum AB, priority 2007, published 2009).
pEC50: −log10 of the molar value.

Assays:
JEG-3 cells [1] = settings: JEG-3 cells (choriocarcinoma cell line); Biol. Reprod. (2007) 76: 203-10; cited from earlier work
JEG-3 cells [2] = assay: [3H]-thymidine incorporation in JEG-3 cells (JEG-3 protocol); format: cell-based
Experimental: In JEG-3 cells (choriocarcinoma cell line) leptin is able to stimulate proliferation up to 3 fold (Biol. Reprod. (2007) 76: 203-10). […] The radioactivity incorporated by the cells is an index of their proliferative activity and is measured in counts per minute (CPM) with a liquid scintillation beta counter.
This finding can be applied to test whether a compound is able to either reproduce the effect of leptin on cell proliferation (leptin receptor agonist mimetic) (i.e., a given compound will cause an increase in incorporated [^3H]-Thymidine by the cells) or to inhibit the effect of leptin (antagonistic effect) by preventing the leptin-mediated increase in [^3H]-thymidine incorporation.
This approach has the advantage of using a non-recombinant system and has reasonable reproducibility and robustness.

Substance: Leptin: hormone synthesized in fat cells that is believed to act in the hypothalamus to reduce food intake and body weight
- stimulation of proliferation (JEG-3 cells [1]): up to 3 fold
- concentration of maximal effect on [3H]-thymidine incorporation (JEG-3 cells [2]; FIG. 4): 100 nM
- pEC50 (JEG-3 cells [2]; FIG. 4, read-out: EC50, increase in [3H]-thymidine incorporation): 8.68
